According to patent US11285132B2, “Uses of indolinone compounds” (Oncternal Therapeutics, Inc., priority 2016, dated 2022):

What was measured:
DLBCL cell lines = assay: Combination with other targeted agents, summary over DLBCL cell lines; type: cell-based
Protocol: The latter synergism could be linked to the previously mentioned negative trend between TK-216 IC50 values and the presence of BCL2 translocation.
(§1) Cell lines were exposed to YK-4-279 or TK-216, alone or in combination with other compounds, for 72 h using a Tecan D300e Digital Dispenser and 96 well plates. Cell proliferation was measured with MTT. Synergy was determined with the Chou-Talalay combination index. Gene expression profiling (GEP) was performed with the Illumina HumanHT 12 Expression BeadChips. In vivo studies were done in NOD-SCID mice and treatments started with 60 mm3 tumor volumes sc.
(§2) Since lenalidomide is active in mantle cell lymphoma (MCL), the synergism of the combination of TK-216 and lenalidomide was confirmed also in two MCL cell lines.

two MCL cell lines = assay: Combination with lenalidomide in MCL cell lines; type: cell-based
Protocol: as §1, §2

TMD-8 tumors = assay: TMD-8 DLBCL-ABC xenograft model in nude mice; type: in vivo
Protocol: The anti-tumor activity of TK216 was assessed in nude mice harboring TMD-8 tumors, a DLBCL-ABC xenograft model. TK216 was administered orally as a solution at 100 mg/kg BID for 13 days.

SPIB to RHA = biological target: T1, SPIB to RHA (Homo sapiens, UniProt Q01892); assay: Co-IP of SPIB with helicases in ABC DLBCL cell lines; type: cell-based; settings: 500 nM, 4-10 h
T1 construct: endogenous in cells
T1 sequence (Q01892 whole entry): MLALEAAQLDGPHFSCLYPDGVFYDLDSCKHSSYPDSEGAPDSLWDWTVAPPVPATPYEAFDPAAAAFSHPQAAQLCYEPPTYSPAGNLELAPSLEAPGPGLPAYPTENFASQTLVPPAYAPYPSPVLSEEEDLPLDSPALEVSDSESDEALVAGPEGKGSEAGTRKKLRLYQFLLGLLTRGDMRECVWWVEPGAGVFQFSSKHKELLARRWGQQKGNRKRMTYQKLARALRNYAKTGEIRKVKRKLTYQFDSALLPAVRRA
Description: (§3) With the aim to understand the mechanism of action of YK-4-279 and TK-216, the baseline RNA expression levels of the different ETS factors were correlated with sensitivity to the drugs. SPIB was the gene presenting the most significant negative correlation with both YK-4-279 and TK-216, especially among the ABC DLBCL cell lines (P<0.05). SPIB is a known oncogene for ABC DLBCL (Lenz et al, PNAS 2008) and is involved in the response to lenalidomide in ABC DLBCL (Yang et al, Cancer Cell 2012). YK-4-279 inhibits the binding of EWS1-FLI1 to the helicases RHA and DDX5 (Selvanathan et al, PNAS 2012). Thus, it was assessed whether YK-4-279 and TK-216 can have a similar effect on SPIB and whether they induce cellular effects similar to lenalidomide. […] In ABC DLBCL, the ETS inhibitor YK-4-279 and its clinical derivative TK-216 interfere with SPIB and helicases involved in RNA editing. Moreover, both compounds act similarly to lenalidomide inhibiting IRF4 and upregulating IRF7 and synergize with the IMID in both ABC DLBCL and MCL.

SPIB to DDX5 = biological target: T2, SPIB to DDX5 (Homo sapiens, UniProt Q01892); assay: as above; type: cell-based; settings: 500 nM, 4-10 h
T2 construct: endogenous in cells
T2 sequence (Q01892 whole entry): as above
Description: as §3

[1] = tested on: EWS-FLI1 and RNA helicase A; assay: EWS-FLI1 protein interaction (FLI1 immunoprecipitation in A4573); type: binding; settings: preclinical potency model
Description: TK216 is a first in class, small molecule that directly binds EWS-FLI1 inhibiting the biological activity of ETS-family transcription factor oncoproteins and is currently under clinical investigation in patients with Ewing sarcoma.
FLI1 was immunoprecipitated following treatment with TK216 or DMSO control in A4573 (see FIG. 2).

MOLM-16 = assay: 72 hr CellTiter-Glo, AML cell line; type: cell-based; settings: MOLM16
OCI-Ly18 = assay: 72 hr CellTiter-Glo, DLBCL cell line; type: cell-based; settings: Homo sapiens

Q: How did the “combination of TK-216 with the BET inhibitor OTX015 (MK-8628)” value (DLBCL cell lines; with OTX015, DLBCL cell lines) turn out when `O=C(CC1(O)C(=O)Nc2c(Cl)ccc(Cl)c21)c1ccc(C2CC2)cc1` (stereo not drawn) [TK216, 4,7-Dichloro-3-(2-(4-cyclopropylphenyl)-2-oxoethyl)-3-hydroxyindolin-2-one] was run?
A: synergism in 2/4 cells and additive effect in 1/4 cells

Q: And the “combination of TK-216 with the immunomodulator lenalidomide” value (DLBCL cell lines; with lenalidomide, activated B cell type DLBCL)?
A: synergism in 2/2 activated B cell type DLBCL

Q: What about the “combination of TK-216 with the anti-CD20 monoclonal antibody rituximab” value (DLBCL cell lines; with rituximab, DLBCL cell lines) of the same compound?
A: synergism in 2/3 cells

Q: What about the “combination of TK-216 with the BCL2 inhibitor venetoclax” value (DLBCL cell lines; with venetoclax, DLBCL cell lines) of the same compound?
A: synergism in 3/4 cells

Q: What about the “combination of TK-216 and lenalidomide” value (two MCL cell lines) of the same compound?
A: synergism

Q: And the tumor growth inhibition (TMD-8 tumors; 100 mg/kg BID orally, 13 days, vs vehicle control)?
A: 77%

Q: And the tolerability (TMD-8 tumors; daily oral administration, xenograft models of DLBCL)?
A: well-tolerated

Q: And the “binding of SPIB to RHA” value (SPIB to RHA)?
A: decreased

Q: And the “binding of SPIB to DDX5” value (SPIB to DDX5)?
A: to a lesser extent, to DDX5 was decreased

Q: What about the “binding between EWS-FLI1 and RNA helicase A” value [1] of the same compound?
A: blocked the binding

Q: What about the IC50 (MOLM-16) of the same compound?
A: 129 nM

Q: What about the IC50 (OCI-Ly18) of the same compound?
A: 95 nM
